Columns and labels:
[1] = Population pharmacokinetics of vancomycin in neonates (hierarchical Bayesian one-compartment model); type: in vivo
Description: Briefly, in step 305, a one-compartment linear disposition model with zero order input (one hour intravenous infusion) and first-order elimination was used to describe the data collected in step 301. In step 303 Weight (Wt) and estimated glomerular filtration rate (EGFR) were included as covariates on clearance (CL), and weight was included as covariate on volume of distribution (V). Back in step 305, a lognormal distribution was used to describe the between-subject-variability (BSV) in model parameter estimates CL and V, as expressed in Equation 8 and Equation 9.
where CLi and Vi are the true parameters for the individual, CLtypical and Vtypical are the population value of the parameters, and ηCL and ηv denote the deviation between the typical value of the parameters and the true parameter value of an individual. The coefficient that describes the relationship between EGFR and CLtypical is denoted by CLEGFR. […] In Table 1, PM indicates posterior median; LCI indicates lower credible interval; and UCI indicates upper credible interval. In other embodiments, based on different datasets or different training approaches, the parameter values are expected to differ to some degree.

[2] = cited from earlier work

CN[C@H](CC(C)C)C(=O)N[C@H]1C(=O)N[C@@H](CC(N)=O)C(=O)N[C@H]2C(=O)N[C@H]3C(=O)N[C@H](C(=O)N[C@H](C(=O)O)c4cc(O)cc(O)c4-c4cc3ccc4O)[C@H](O)c3ccc(c(Cl)c3)Oc3cc2cc(c3O[C@@H]2O[C@H](CO)[C@@H](O)[C@H](O)[C@H]2O[C@H]2C[C@](C)(N)[C@H](O)[C@H](C)O2)Oc2ccc(cc2Cl)[C@H]1O [vancomycin]
Interindividual variability CL, posterior median ([1]; in vivo): 22.9 % CV
Interindividual variability V, posterior median ([1]; in vivo): 15.4 % CV
Residual variability, proportional, posterior median ([1]; in vivo): 17.3 % CV
CLtypical, posterior median ([1]; typical individual 2.9 kg, estimated glomerular filtration rate of 30 mL/min per 1.73 m^2, one hour intravenous infusion): 0.167 L/h
patients with AUC0-24 hr exceeding 600 ([2]; current practice): over 30%
final target attainment ([2]; with TDM): ~45%
neonates that initially achieve recommended target concentrations ([2]; with dosing nomograms, studies across the US and Europe): 37%

From patent publication US20210035672A1, “METHOD AND […] FOR INDIVIDUALIZED ADMINISTRATION OF MEDICAMENTS FOR […] WITHIN A T[…]” (University Of Maryland, Baltimore, priority 2018, published 2021)
